This is an account of results in patent US20090298903A1, “USE OF TETRAMIC ACID DERIVATIVES FOR INSECT CONTROL” (priority 2006, published 2009).

What all share (format): in vivo
One test concerns Dasineura mali. As to the kind of experiment: Example 19 a): apple trees against Dasineura mali. The settings on record: 59 d after treatment; larvae, apple twigs; Pirimicarb (50 WG) 125, (I-4) (100 OD) 72 g a.s./ha/m crown level. The method, then: Apple trees cv. “Elan” which are approximately 16 years old are treated, in 3 replications, against the Dasineura mali. Here, the active substance Example (I-4) (100 OD) is tested at the specified application rate against the commercial standard and Pirimicarb (50 WG) at the specified application rate. The application is carried out with a spray diffuser. Here, the treatment is effected with a water application rate of 1000 l/ha/m crown level.
The test is evaluated 59 days after the treatment by scoring the destruction of the larvae on the basis of the adults present on the twigs with the aid of the Abbott method.

A further test concerns Thrips tabaci. As to the kind of experiment: Example 6: onions against Thrips tabaci. The settings on record: population on leaves. The method, then: Plots 15 m^2 in size which are planted with onions are treated, in two replications, against Thrips tabaci. The application is effected with a knapsack sprayer which is operated with pressurized air. Here, the active substances Example (I-4), in a tank mix together with 0.2% a.s. rapeseed oil methyl ester (500 EW) and the commercial standard dimethoate and (380 EC), are tested at the specified application rates in a tank mix with 0.9% a.s. E-actipron (900 EC). The water application rate is 300 l/ha.
The test was evaluated 43 and 62 days after the treatment by scoring the destruction rate of the population on the leaves.

Another test has as its system Rhagoletis cerasi. Put plainly: Example 21: cherry trees against Rhagoletis cerasi. The settings on record: 23 d after treatment 2, larvae on fruits, Dimethoate (400 EC) 200, (I-4) (150 OD) 75 g a.s./ha/m crown level. The protocol:
Cherry trees cv. “Van” which are approximately 26 years old are treated, in three replications, against Rhagoletis cerasi. The application is carried out with an atomizer. Here, the active substance Example (I-4) (150 OD) and the commercial standard dimethoate (400 EC) are applied at the specified application rates. Two applications are carried out at an interval of 6 days with a water application rate of 500 l/ha/m crown level.
The test is evaluated 23 days after treatment 2 by scoring the destruction rates of the animals (larvae) on the fruits with the aid of the Abbott formula.

Another test concerns Pegomya spp. As to the kind of experiment: Example 17: winter wheat against Pegomya spp. The settings on record: 3 days after the last of two treatments (interval 7 days), larvae, Thiacloprid (240 OD) 72, (I-4) (240 SC + 0.2% rapeseed oil methyl ester) 96 g a.s./ha. The method, then: Plots approx. 25 m^2 in size which are planted with winter wheat cv. “Capfern” are treated, in four replications, against Pegomya spp. The application is carried out with a knapsack sprayer which is operated with pressurized air. Here, the active substance Example (I-4) (240 SC), in a tank mix with 0.2% a.s. rapeseed oil methyl ester (500 EW) and the commercial standard Thiacloprid (240 OD), is tested at the specified application rates. Two applications are carried out at an interval of 7 days. The water application rate is 350 l/ha.
The test is evaluated 3 days after the last treatment by scoring the destruction rate of the larvae on the plants.

Test [1] relates to apple capsid bug (Plesiocoris rugicollis). As to the kind of experiment: Example 1B: apple trees against apple capsid bug. The settings on record: 37 d after treatment, larvae on twigs, Deltamethrin (EC 025) 3.75, (I-4) (150 OD) 30 g a.s./ha/m crown level. The method, then:
Apple trees cv. “Holsteiner Cox” which are approximately 14 years old are treated, in 3 replications, against the apple capsid bug (Plesiocoris rugicollis). Here, the active substance Example (I-4) (150 OD) is tested at the specified application rate against the commercial standard Deltamethrin liquid (EC 025) at the specified application rate. The application is carried out with a knapsack sprayer. Here, the treatment is effected with a water application rate of 500 l/ha/m crown level.
The test is evaluated 37 days after the treatment by scoring the destruction of the larvae on the twigs with the aid of the Abbott method.

A further test concerns Ceratitis capitata. Put plainly: Example 20: peach trees against Ceratitis capitata. To be noted: animals on fruits. The protocol:
Peach trees cv. “Oom Sarel” which are approximately 10 years old are treated, in three replications, against Ceratitis capitata. The application is carried out with a high-pressure sprayer or a knapsack sprayer which is operated with pressurized air. Here, the active substance Example (I-4) (150 OD) and the commercial standard Fenthion (500 EC) are tested at the specified application rates. The water application rate is 2500 l/ha. Three applications are carried out at an interval of 7 and 19 days, respectively.
The test is evaluated 9 and 16 days after treatment 3 by scoring the destruction rate of the animals on the fruits with the aid of the Abbott formula.

For test [2], the system named is Frankliniella occidentalis. Put plainly: Example 2: bell peppers against Frankliniella occidentalis. The settings on record: Acrinathrin 60, (I-9) 54, (I-4) 60 g a.s./ha, (I-9)/(I-4) 240 SC + 0.1% rapeseed oil methyl ester. The method, then:
Plots 10 m^2 in size which are planted with bell peppers cv. “Zingaro” are treated, in three replications, against Frankliniella occidentalis. The application is effected with a knapsack sprayer which is operated with pressurized air. Here, the active substances Example (I-9) (240 SC) and Example (I-4) (240 SC), in the form of a tank mix together with 0.1% a.s. rapeseed oil methyl ester (500 EW) and the commercial standard acrinathrin (075 EW), are applied at the specified application rates. Two applications are carried out at an interval of 24 days, with a water application rate of 1000 l/ha.
The test is evaluated 17 and 21 days after treatment 1 and 4 days after treatment 2 by scoring the destruction of the animals (nymphs) on the flowers.

A further test has as its system Empoasca onukui. Put plainly: Example 15: tea plants against Empoasca onukui. The settings on record: larvae on shoots. The protocol:
Plots approx. 4 m^2 in size which are planted with tea plants cv. “Yabukita” are treated, in three replications, against Empoasca onukui. The application is carried out with a knapsack sprayer which is operated with pressurized air. Here, the active substance Example (I-4) (150 OD) is tested against the commercial standard Admire (10 WP) at the specified application rates. The water application rate is 10 000 l/ha.
The test is evaluated 15 and 29 days after the treatment by scoring the destruction rate of the larvae in percent on the shoots.

In the case of `CCOC(=O)OC1=C(c2cc(C)ccc2C)C(=O)N[C@]12CC[C@@H](OC)CC2` [Example (I-4)], the “Efficacy (%) Abbott 59 d” value with Dasineura mali is 95.1%. Besides, the “Efficacy (% Abbott) 43 d” value in the test on Thrips tabaci (43 d after treatment, Dimethoate (380 EC + 0.9% E-actipron) 380, (I-4) (+ 0.2% rapeseed oil methyl ester) 96 g a.s./ha) is listed as 83.0 % Abbott. Besides, the “Efficacy (% Abbott) 62 d” value in the test on Thrips tabaci (62 d after treatment, Dimethoate 380, (I-4) 96 g a.s./ha) is recorded as 84.5 % Abbott. The “Efficacy (% Abbott) 23 d” value with Rhagoletis cerasi is 100 % Abbott. The “Efficacy (% Abbott) 10 d” value with Pegomya spp. is listed as 100 % Abbott. Moreover, the “Efficacy (%) Abbott 37 d” value in test [1] is given as 96%. In addition, the “Efficacy (% Abbott) 16 d after treatment 3” value in the test on Ceratitis capitata (Fenthion 1700, (I-4) 100 g a.s./ha) amounted to 100 % Abbott. In addition, the “Efficacy (% Abbott) 9 d after treatment 3” value in the test with Ceratitis capitata (Fenthion (500 EC) 1700, (I-4) (150 OD) 100 g a.s./ha) was 86.7 % Abbott. The “Efficacy (% Abbott) 4 d (2)” value in test [2] (4 d after treatment 2, nymphs on flowers) is on record as 80 % Abbott. In test [2] (17 d after treatment 1, nymphs on flowers), the “Efficacy (% Abbott) 17 d (1)” value was 71 % Abbott. Also, the “Efficacy (% Abbott) 21 d (1)” value in test [2] (21 d after treatment 1, nymphs on flowers) came out at 85 % Abbott. The “Efficacy (% Abbott) 15 d” value in the test on Empoasca onukui (15 d after treatment, Admire (10 WP) 0.005 % a.s., (I-4) (150 OD) 0.01 % a.s.) is 73 % Abbott. In addition, the “Efficacy (% Abbott) 29 d” value with Empoasca onukui (29 d after treatment, Admire 0.005 % a.s., (I-4) 0.01 % a.s.) was determined as 78.8 % Abbott.
